Measurements published in patent publication US3962321A, “Enhancement of coffee flavor” (General Foods Corporation, priority 1973, dated 1976).
Entries after “also recorded” stand apart in the source; their conditions may differ.

Experiments:
[1] = Expert taster flavor and aroma levels (threshold, recognition, fatty flavor) in regular or soluble coffee brew; details: about 1 to 1.5% coffee solids brew; for Recognition Level: woody note
Source text: The threshold level is that quantity of flavoring producing a change in cup flavor and aroma, but a change which cannot be described as a particular flavor. The recognition level is the quantity of flavoring which can be defined as imparting a woody note to the brew. The fatty level is that point where the undesirable fatty flavor becomes apparent and detracts from the woody character of the flavoring noted at lower levels.

[2] = Taste comparison in spray dried instant Maxwell House coffee containing synthetic winey, buttery flavor (Example XII); details: 2 ppb; 1.35% coffee solids brew
Source text: Spray dried instant Maxwell House brand coffee containing a synthetic, winey, buttery flavor was compared to an identical sample containing an additional 2ppb trans-2-nonenal.

[3] = Taste comparison in freeze dried Maxim soluble coffee with steam generated aroma (Example XIV); details: 2 ppb
[4] = Taste comparison in instant Maxwell House coffee beverage (Example XI); details: for Taste comparison with control: 1.35% coffee solids (Example XIA)
Source text: A. A taste comparison was made of instant Maxwell House brand coffee beverage containing 1.35% coffee solids enhanced with 1 ppb and 2 ppb trans-2-nonenal.
B. Example XIA was repeated employing a broader range of flavor enhancement.

[5] = Taste comparison in freeze dried Maxim soluble coffee (Example XIII)
[6] = Flavor evaluation in water and soluble coffee (Example XVI)
Source text: A ten percent ethanolic solution of trans-2-nonenal (Compagnie Parento, Croton-on-Hudson, New York) was passed through a Perkin-Elmer model 900 gas chromatography unit having a 6-foot by 1/8 inch column packed with 10% diethylene glycol succinate polyester on 80/90 Anakrom ABS.

[7] = Expert panel flavor evaluation in instant Maxwell House coffee (Example XVII); details: two parts per billion; 1.35% coffee solids
Source text: An expert panel flavor evaluation was made of trans-2-nonenal, purified as in Example XVI, at a level of two parts per billion in instant Maxwell House brand soluble coffee at a 1.35% coffee solids concentration.

[8] = Evaluation in various foodstuffs versus control (Example XXV)
Experimental: To various foodstuffs is added minute amounts of the enhancing compounds of this invention at the proportions indicated. The foodstuffs are then evaluated by comparison to a control not containing the enhancer.

[9] = Flavor comparison in 100% Robusta spray dried soluble coffee (Example XXIV); details: 2 ppb
[10] = Triangular odd cup flavor evaluation of retention on spray drying of coffee extract (Example XXI); assay type: physicochemical
Experimental: To 500 ml of distilled water is added 2.34 mg of trans-2-nonenal dissolved in 1 ml of ethanol. The aqueous mix is added to 40 pounds of coffee extract (24.5% solids) and the mixture is spray dried.
Unaromatized extract is spray dried umder equivalent conditions for use as a control. A flavor evaluation is made by dissolving 3.25 g of the aromatized coffee in eight ounces of hot water. Control cups are prepared by dissolving in each cup 3.25 g of control coffee in eight ounces of hot water and then adding thereto 10 microliters of a solution of 0.24 mg trans-2-nonenal in 5 ml of water.

[11] = Flavor evaluation of retention on freeze drying of coffee extract (Example XX); assay type: physicochemical; details: theoretical 2 ppb
Experimental: Trans-2-nonenal (5 mg in one ml of ethanol) is added to 500 ml of distilled water and the aqueous mixture poured into 52 pounds of coffee extract of 28.2% coffee solids. The coffee-nonenal mixture is stirred and then poured into trays and frozen to form 3/8 inch thick slabs. Control slabs are also prepared from the same extract without the addition of flavors.
The slabs are freeze dried in a 50 square foot Stokes Freeze Drier under 150 microns pressure. […] Condenser temperature is maintained at -40°F.
A flavor evaluation is made by dissolving 0.65 gms of trans-2-nonenal aromatized freeze dried coffee and 2.60 gms of freeze dried control in eight bunces of hot water to give a theoretical 2 ppb concentration. Control cups are prepared by dissolving 3.25 gms of freeze dried control coffee in eight ounces of hot water and adding thereto 10 microliters of a 5 ml aqueous solution containing 0.25 mg trans-2-nonenal to give a 2 ppb concentration.

[12] = Taste comparison in instant Postum beverage (Example XXVI)
Experimental: A solution of trans-2-nonenal was prepared by dissolving 20 mg of the aldehyde in 50 ml of ethanol. One half of a milliliter of the resulting solution was then dissolved in 50 ml of spring water to yield a 0.2 mg/50 ml solution. The spring water solution was employed to prepare enhanced instant Postum by adding a sufficient amount to two grams of Postum dissolved in 200 ml of boiling spring water to give 5, 10, 20, and 30 ppb concentrations of nonenal in the hot Postum beverage. These beverages were compared with a control of 2 grams Postum dissolved in 200 ml boiling spring water by several expert tasters.

[13] = Flavor comparison in Sanka decaffeinated soluble coffee (Example XVIII); details: 2 ppb
[14] = General flavor characterization by flavor experts; details: 50 ppm or higher
[15] = Flavor effect in whisky and carbonated and non-carbonated beverages

CCCCCC/C=C/C(OCC)OCC [trans-2-nonene diethyl acetal]
Threshold Level [1]: 0.02 ppb | Undesired Fatty Flavor Becoming Apparent [1]: 1200 ppb | Recognition Level [1]: 0.03 ppb

CCCCCC/C=C/C1OCCO1 [1-Octenyl-1-dioxolane, trans-1-octenyl-2-dioxolane]
Threshold Level [1]: 0.3 ppb | Undesired Fatty Flavor Becoming Apparent [1]: 1000 ppb | Recognition Level [1]: 0.8 ppb

CCCCCC/C=C/COC(C)=O [trans-2-nonenylacetate, Trans-2-nonenyl acetate]
Threshold Level [1]: 100 ppb | Undesired Fatty Flavor Becoming Apparent [1]: 1500 ppb | Recognition Level [1]: 200 ppb

CCCCCC/C=C/C=O [trans-2-nonenal]
Flavor comparison with identical sample without additive [2]: very desirable balanced flavor, having prominent winey, buttery and woody regular coffee notes | Flavor comparison with control [3]: very good regular coffee flavor, the brew having improved cup flavor and lacking sourness when compared to the control | Flavor Comments ([4]; 0.2 ppb in the brew): detectable subtle flavor | Flavor Comments ([4]; 0.4 ppb in the brew): subtle recognition of woodiness | Flavor Comments ([4]; 0.6 ppb in the brew): definite recognition of woodiness | Flavor Comments ([4]; 1 ppb in the brew): woody and smoother | Taste comparison with control ([4]; 1 ppb): did not give a detectable woody flavor, but did balance or blend the coffee flavor and masked the caramel and acid flavor of the control | Flavor Comments ([4]; 2 ppb in the brew): woody and groundsy | Taste comparison with control ([4]; 2 ppb): improved woody regular coffee flavor and lacked the typical caramel and acid notes of the control | Flavor Comments ([4]; 8 ppb in the brew): high woody impact | Flavor Comments ([4]; 16 ppb in the brew): tallowy flavor | Flavor Comments ([4]; 30 ppb in the brew): burnt, fatty | Flavor Comments ([4]; 40 ppb in the brew): burnt, fatty and rancid | Taste comparison with control ([5]; 1 ppb): while woodiness was not evident, there was an improved balanced cup flavor and a reduction in sourness | Taste comparison with control ([5]; 2 ppb): improved woody regular coffee note. In addition, the typically winey and buttery notes of the coffee were better balanced and the typical sourness of the brew was masked | Flavor in water ([6]; 2 ppb and 20 ppb in water): regular coffee flavor characterized by experts as woody or spent grounds | Concentration at which expert tasters find undesirable flavors ([6]; not apparent to less skilled tasters): about 16 ppm | Threshold Level [1]: 0.05-0.2 ppb | Undesired Fatty Flavor Becoming Apparent [1]: 16 ppb | Recognition Level [1]: 0.4-0.6 ppb | Expert panel flavor evaluation [7]: slight spent grounds flavor which improved the regular brewed character of the coffee; also recorded: desirable blending or mixing of flavor and a secondary aromatic flavor similar to that produced by the addition of steam generated aroma | Evaluation ([8]; Ex. 1 Cola beverage, 2 ppb): Woody | Evaluation ([8]; Ex. 2 Pear nectar, 1 ppb): Increased pear flavor | Evaluation ([8]; Ex. 3 Ginger ale, 2 ppb): Woody | Evaluation ([8]; Ex. 5 Cranberry juice, 2 ppb): Woody | Evaluation ([8]; Ex. 7 Condensed beef broth, 2 ppb): High woody | Evaluation ([8]; Ex. 8 Root Beer beverage, 1 ppb): Enhanced flavor | Evaluation ([8]; Ex. 8 Root Beer beverage, 2 ppb): High woody | Evaluation ([8]; Ex. 9 Creme Soda, 2 ppb): High woody | Evaluation ([8]; Ex. 11 Cherry gelatin dessert, 2 ppb): Woody | Evaluation ([8]; Ex. 12 Artificially sweetened cola beverage, 2 ppb): Woody | Evaluation ([8]; Ex. 13 Meat broth, 1 ppb): Higher flavor impact | Flavor comparison with control [9]: improved woody cup flavor and aroma | Loss during spray drying [10]: no significant loss of trans-2-nonenal during spray drying | Difference between aromatized and control cups ([10]; triangular, odd cup flavor evaluation): no difference between the cups | Loss of aroma during freeze drying [11]: slight loss of trans-2-nonenal aroma during freeze drying | Woody flavor of freeze dried aromatized sample relative to control ([11]; after freeze drying): about ninety | Effect on molasses flavor and woody flavor of Postum [12]: reduced appreciably the characteristic molasses flavor of Postum and imparted a slight woody flavor | Effect on sweet, cereal taste of Postum [12]: significant reduction in the sweet, cereal taste of the beverage | Taste preference ([12]; 5 ppb and 10 ppb): preferred | Flavor comparison with control [13]: improved woody flavor and good balance of cup flavor and aroma | Flavor when tasted at conventional flavor concentrations [14]: unpleasant, rancid fat flavor | Flavor in beverages [15]: low level woody note not detectable as coffee flavor which enhances the basic flavor of the beverage

CCCCCC/C=C/C(OC)OC [trans-2-nonene dimethyl Acetal, trans-2-nonene dimethyl acetal]
Threshold Level [1]: 0.03 ppb | Undesired Fatty Flavor Becoming Apparent [1]: 800 ppb | Recognition Level [1]: 0.08 ppb

CCCCCC/C=C\COC(C)=O [cis-2-nonenyl acetate]
Threshold Level [1]: 50 ppb | Undesired Fatty Flavor Becoming Apparent [1]: 1500 ppb | Recognition Level [1]: 150 ppb
